We go through 1 molecule from patent US20150250782A1, “Methods and Compositions for Hypotensive Resuscitation” (Pharmazz, Inc., priority 2012, published 2015).

Test [1] relates to hemorrhaged rats. Kind of test: Norepinephrine required to maintain MAP at 70 mmHg in hemorrhaged rats. It counts as in vivo, rat. The note with it: 0.05 mg/kg. On the procedure: (§1) In another study, the effect of centhaquin resuscitation on the amount of norepinephrine (NE) required to maintain mean arterial pressure (MAP) and the time by which MAP falls back to 35 mmHg in hemorrhaged rats was determined. Male, adult rats were anesthetized with urethane and a pressure catheter SPR-320 was placed in the femoral artery, and a pressure-volume catheter SPR-869 was placed in the left ventricle. Hemorrhage was induced by withdrawing blood and MAP was maintained at 35 mmHg for 30 minutes followed by resuscitation.
(§2) Two sets of experiments were performed. First, the amount of NE required to maintain MAP at 70 mmHg in normal saline (NS) or centhaquin (0.05 mg/kg) treated rats (volume equal to blood loss) was determined. Second, the time by which MAP fell back to 35 mmHg in rats treated with 3% hypertonic saline (HS) or centhaquin (0.05 mg/kg) (volume one-fifth of blood loss) was determined. […] In a second set of experiments, hemorrhaged rats were resuscitated with either HS or centhaquin (one-fifth the volume of blood loss).

In test [2] the test system is hemorrhaged rats. Kind of test: Time by which MAP falls back to 35 mmHg in hemorrhaged rats, low volume resuscitation. Type of test: in vivo, rat. On the procedure:
as §1, §2

Test [3] deals with hemorrhaged rats. In words: Initial experiments in hemorrhaged rats with 0.45 mg/kg centhaquin. Type of test: in vivo, rat. On the procedure:
Initial experiments in hemorrhaged rats were performed with a 0.45 mg/kg dose of centhaquin. […] Centhaquin (0.45 mg/kg) produced a decrease in HR (beats/min) from 368±12 at hemorrhage, to 306±6, 309±6 and 274±11 at 30, 60 and 120 min, respectively, following resuscitation; cardiac output (mL) increased from 32±6 at hemorrhage, to 77±3, 74±4 and 62±5 at 30, 60 and 120 min, respectively, following resuscitation; while systemic vascular resistance (dynes*sec/cm5) was 84±4 at hemorrhage, and fell to 39±9, 42±9 and 45±6 at 30, 60 and 120 min, respectively, following resuscitation.

Test [4] concerns endothelin A (ETA) receptors. In words: Expression of ETA receptors in blood vessels after intravenous administration. It counts as in vivo, rat. The note with it: intravenous administration in rats.
The subject of test [5] is right auricle of guinea pig. The conditions noted are these: Srimal, Mason et al. 1990, cited from earlier work.
Test [6] relates to urethane anesthetized rats and conscious freely moving cats and rats. The note with it: 0.05 to 0.2 mg/kg, iv; Srimal, Gulati et al. 1990; cited from earlier work.
[7] abbreviates: 0.05 mg/kg, one-fifth the volume of blood loss.
Where [8] appears, read: 120 min following resuscitation.

Regarding `Cc1cccc(N2CCN(CCc3ccc4ccccc4n3)CC2)c1` [centhaquin, 2-[2-(4-(3-methyphenyl)-1-piperazinyl)ethyl]-quinoline], the Blood lactate with hemorrhaged rats [1] (60 min following resuscitation, volume equal to blood loss) is 1.65 ± 0.23 mmol/L. Besides, in the test with hemorrhaged rats [1] (first 60 min of resuscitation), the “amount of NE needed in each rat to maintain MAP at 70 mmHg” value was determined as 17.5 µg. Besides, in the test with hemorrhaged rats [2] (setting [7]), the “blood lactate lower compared to hypertonic saline” value was determined as 44% and the “time by which MAP fell back to 35 mmHg” value is 148 ± 15 min. Also, the “survival after blood transfusion” value in the test with hemorrhaged rats [2] (blood transfusion one-fifth the volume of blood loss after MAP fell to 35 mmHg) worked out at 788 min. For the same molecule, in the test with hemorrhaged rats [3] (30 min following resuscitation), the HR is listed as 306±6 beats/min, the MAP is recorded as 38±4 mmHg, the cardiac output amounted to 77 ± 3 mL and the systemic vascular resistance is reported as 39±9 dynes*sec/cm5. Besides, in the test on hemorrhaged rats [3] (60 min following resuscitation), the HR was 309±6 beats/min, the MAP is 39±4 mmHg, the cardiac output is 74 ± 4 mL and the systemic vascular resistance turned out to be 42±9 dynes*sec/cm5. For the same molecule, in the test on hemorrhaged rats [3] (setting [8]), the HR was 274±11 beats/min, the MAP was found to be 35±4 mmHg, the cardiac output was 62 ± 5 mL and the systemic vascular resistance amounted to 45±6 dynes*sec/cm5. In the test with hemorrhaged rats [3] (at hemorrhage), this molecule had an HR of 368±12 beats/min, a cardiac output of 32 ± 6 mL and a systemic vascular resistance of 84±4 dynes*sec/cm5. In test [4], the “expression of endothelin A (ETA) receptors in the blood vessels” value was “increase the expression”. Further, the “effect on positive inotropic effect of norepinephrine” value in test [5] is listed as “significantly potentiated”. Besides, the “spontaneous contraction of the right auricle” value in test [5] (up to a concentration of 2 μg/ml) is on record as “not affected”. Further, the “mean arterial pressure (MAP) and heart rate (HR)” value in test [6] is “dose-dependent decrease”.
